Laboratory results published in EP0497314A1, “Use of azapirones in attention deficit hyperactivity disorder” (Bristol-Myers Squibb Company, priority 1991, dated 1992).
Marks after values point to notes of the source that are not given here.

Assays:
rabbit cortex = assay: Quantitative EEG, rabbit cortex, intravenous administration; assay type: in vivo, rabbits; details: rabbit, in vivo
Method: At least 2 weeks were allowed for recovery before beginning experimentation.
Groups of four animals each were individually restrained and connected to an EEG amplifier and frequency analyzer. The EEG of each animal was recorded on a separate channel. The instrumentation filtered each channel of EEG analog data into five distinct frequency bands: Δ=0.5-3.5 Hz, ϑ=3.5-7.0 Hz, α=7-13 Hz, β=13-25 Hz and γ=25-40 Hz. The EEG analyzer then integrated the filtered waveforms and sent pulses to an associated computer at a rate proportional to the electrical energy of each band. Thus, one computer print-out provided a cortical EEG profile for the entire group of four rabbits.
Data from a one-hour recording period were collected in four 15-minute periods, which provided additional information concerning both onset and time of peak effect of drug activity. However, in this report only the mean activity of the four data collection periods was considered since onset of drug activity was immediate and duration of action was at least one hour for all drugs studied. Drug-induced EEG changes were determined by comparing the post-treatment print-out to the pretreatment control in the same animal and statistical analysis was performed on change from control, in counts, using multiple Student-t paired-comparison tests with p≦0.05 (Table 1). However, for clarity data are also presented as percent change from control (Figures 1 and 2).
All drugs were administered intravenously in saline solution as their respective salts and all dosage calculations were based on the free base. Recording was started immediately after injection and animals were not used more often than once per week. Initial doses were reduced geometrically until a no-effect dose was determined for each drug. However, only the "no-effect" data and the data generated from the next higher dose are presented in this report since the shape of the EEG profile is not dose-related, as opposed to the magnitude of the response which is dose-related.

[1] = tested on: fronto-occipital cortex of the cat; assay: Quantitative EEG, fronto-occipital cat cortex, subcutaneous administration; assay type: in vivo, cats; details: in vivo
From the text: This unique combination of activity may render buspirone useful in the treatment of childhood hyperkinesis which has been reported to respond to both selected phenothiazine and stimulant drugs. • (b) Adult mongrel female cats weighing 2.5-4.0 kg were implanted with EEG recording electrodes. Recording sites were as follows: fronto-occipital cortex, basal amygdala and ventral hippocampus.
Animals were individually held in canvas feline restraining bags for EEG recording. The EEG of each brain area was recorded on a separate channel. The instrumentation filtered each channel of EEG and analog data into five distinct frequency bands: Δ=0.5-3.5 Hz, ϑ=3.5-7.0 Hz, α=7-13 Hz, β=13-25 Hz and γ=25-40 Hz. The EEG analyzer then integrated the filtered waveforms and sent pulses to an associated computer at a rate proportional to the electrical energy of each band. Data collecting procedures were essentially the same as reported in Example 1. However, groups of six animals each were used and all drugs were administered subcutaneously in saline solution as their respective salts, but all dosages were calculated as the free base. Recording was started 30 minutes after injection to insure adequate drug absorption for peak activity.
Drug-induced EEG changes were determined by comparing the post-treatment data to the pre-treatment control in the same animal. Statistical analysis was performed on change from control, in instrument counts, using multiple Student-t-paired-comparison test with P≦0.05 (Table 2). However, for clarity data are also presented as percent change from control (Figures 3, 4 and 5).
The data in Table 2 are drug-induced changes resulting from the minimum and higher doses of each compound required to elicit the EEG profile characteristic of that particular drug.

C[C@H](N)Cc1ccccc1 [Dextroamphetamine 1/2H2SO4, dextroamphetamine]
the minimum dose required to produce the EEG profile characteristic of that particular drug (rabbit cortex): 0.25‡ mg/kg, i.v. | the no-effect dose (rabbit cortex): 0.125† mg/kg, i.v. | relative potency by comparing minimal doses required to elicit EEG profiles (rabbit cortex; iv): approximately twice as potent as buspirone | group percent change in electrical energy from pre-drug control, Δ band (rabbit cortex; iv, 0.125 mg/kg): +4 ± 17 (+2) percent | group percent change in electrical energy from pre-drug control, α band (rabbit cortex; iv, 0.125 mg/kg): 0 ± 9 (0) percent | group percent change in electrical energy from pre-drug control, β band (rabbit cortex; iv, 0.125 mg/kg): +2 ± 6 (+1) percent | group percent change in electrical energy from pre-drug control, γ band (rabbit cortex; iv, 0.125 mg/kg): +1 ± 1 (+1) percent | group percent change in electrical energy from pre-drug control, θ band (rabbit cortex; iv, 0.125 mg/kg): -9 ± 6 (-5) percent | mean change ± S.E. in electrical energy from pre-drug control, Δ band (rabbit cortex; iv, 0.125 mg/kg): +4 ± 17 (+2) instrument counts | mean change ± S.E. in electrical energy from pre-drug control, α band (rabbit cortex; iv, 0.125 mg/kg): 0 ± 9 (0) instrument counts | mean change ± S.E. in electrical energy from pre-drug control, β band (rabbit cortex; iv, 0.125 mg/kg): +2 ± 6 (+1) instrument counts | mean change ± S.E. in electrical energy from pre-drug control, γ band (rabbit cortex; iv, 0.125 mg/kg): +1 ± 1 (+1) instrument counts | mean change ± S.E. in electrical energy from pre-drug control, θ band (rabbit cortex; iv, 0.125 mg/kg): -9 ± 6 (-5) instrument counts | group percent change in electrical energy from pre-drug control, α band (rabbit cortex; iv, 0.25 mg/kg): +27 ± 9 (-22) percent | group percent change in electrical energy from pre-drug control, β band (rabbit cortex; iv, 0.25 mg/kg): -21 ± 6 (-20) percent | group percent change in electrical energy from pre-drug control, γ band (rabbit cortex; iv, 0.25 mg/kg): -4 ± 1 (-5) percent | group percent change in electrical energy from pre-drug control, θ band (rabbit cortex; iv, 0.25 mg/kg): -35 ± 9 (-25) percent | mean change ± S.E. in electrical energy from pre-drug control, Δ band (rabbit cortex; iv, 0.25 mg/kg): -64 ± 19 (-33) instrument counts | mean change ± S.E. in electrical energy from pre-drug control, β band (rabbit cortex; iv, 0.25 mg/kg): -21 ± 6 (-20) instrument counts | mean change ± S.E. in electrical energy from pre-drug control, γ band (rabbit cortex; iv, 0.25 mg/kg): -4 ± 1 (-5) instrument counts | mean change ± S.E. in electrical energy from pre-drug control, θ band (rabbit cortex; iv, 0.25 mg/kg): -35 ± 9 (-25) instrument counts | the minimum dose required to produce the EEG profile characteristic of that particular drug [1]: 0.125‡ mg/kg, s.c. | the no-effect dose [1]: 0.0625† mg/kg, s.c. | relative potency by comparing minimal doses required to elicit EEG profiles ([1]; sc): approximately twice as potent as buspirone and methylphenidate | group percent change in electrical energy from pre-drug control, Δ band ([1]; sc, 0.0625 mg/kg): -18 ± 6 (-8) percent | group percent change in electrical energy from pre-drug control, α band ([1]; sc, 0.0625 mg/kg): -12 ± 8 (-8) percent | group percent change in electrical energy from pre-drug control, β band ([1]; sc, 0.0625 mg/kg): +1 ± 5 (+1) percent | group percent change in electrical energy from pre-drug control, γ band ([1]; sc, 0.0625 mg/kg): +2 ± 3 (+2) percent | group percent change in electrical energy from pre-drug control, θ band ([1]; sc, 0.0625 mg/kg): -15 ± 7 (-10) percent | mean change ± S.E. in electrical energy from pre-drug control, Δ band ([1]; sc, 0.0625 mg/kg): -18 ± 6 (-8) instrument counts | mean change ± S.E. in electrical energy from pre-drug control, α band ([1]; sc, 0.0625 mg/kg): -12 ± 8 (-8) instrument counts | mean change ± S.E. in electrical energy from pre-drug control, β band ([1]; sc, 0.0625 mg/kg): +1 ± 5 (+1) instrument counts | mean change ± S.E. in electrical energy from pre-drug control, γ band ([1]; sc, 0.0625 mg/kg): +2 ± 3 (+2) instrument counts | mean change ± S.E. in electrical energy from pre-drug control, θ band ([1]; sc, 0.0625 mg/kg): -15 ± 7 (-10) instrument counts | group percent change in electrical energy from pre-drug control, Δ band ([1]; sc, 0.125 mg/kg): -85 ± 21 (-35) percent | group percent change in electrical energy from pre-drug control, α band ([1]; sc, 0.125 mg/kg): -29 ± 9 (-26) percent | group percent change in electrical energy from pre-drug control, β band ([1]; sc, 0.125 mg/kg): -3 ± 4 (-3) percent | group percent change in electrical energy from pre-drug control, γ band ([1]; sc, 0.125 mg/kg): +8 ± 2 (+12) percent | group percent change in electrical energy from pre-drug control, θ band ([1]; sc, 0.125 mg/kg): -44 ± 8 (-33) percent | mean change ± S.E. in electrical energy from pre-drug control, Δ band ([1]; sc, 0.125 mg/kg): -85 ± 21 (-35) instrument counts | mean change ± S.E. in electrical energy from pre-drug control, α band ([1]; sc, 0.125 mg/kg): -29 ± 9 (-26) instrument counts | mean change ± S.E. in electrical energy from pre-drug control, β band ([1]; sc, 0.125 mg/kg): -3 ± 4 (-3) instrument counts | mean change ± S.E. in electrical energy from pre-drug control, γ band ([1]; sc, 0.125 mg/kg): +8 ± 2 (+12) instrument counts | mean change ± S.E. in electrical energy from pre-drug control, θ band ([1]; sc, 0.125 mg/kg): -44 ± 8 (-33) instrument counts | group percent change in electrical energy from pre-drug control, Δ band ([1]; sc, 0.5 mg/kg): -78 ± 32 (-33) percent | group percent change in electrical energy from pre-drug control, α band ([1]; sc, 0.5 mg/kg): -71 ± 11 (-51) percent | group percent change in electrical energy from pre-drug control, β band ([1]; sc, 0.5 mg/kg): -18 ± 9 (-15) percent | group percent change in electrical energy from pre-drug control, γ band ([1]; sc, 0.5 mg/kg): +18 ± 4 (+25) percent | group percent change in electrical energy from pre-drug control, θ band ([1]; sc, 0.5 mg/kg): -76 ± 13 (-51) percent | mean change ± S.E. in electrical energy from pre-drug control, Δ band ([1]; sc, 0.5 mg/kg): -78 ± 32 (-33) instrument counts | mean change ± S.E. in electrical energy from pre-drug control, α band ([1]; sc, 0.5 mg/kg): -71 ± 11 (-51) instrument counts | mean change ± S.E. in electrical energy from pre-drug control, β band ([1]; sc, 0.5 mg/kg): -18 ± 9 (-15) instrument counts | mean change ± S.E. in electrical energy from pre-drug control, γ band ([1]; sc, 0.5 mg/kg): +18 ± 4 (+25) instrument counts | mean change ± S.E. in electrical energy from pre-drug control, θ band ([1]; sc, 0.5 mg/kg): -76 ± 13 (-51) instrument counts | group percent change in electrical energy from pre-drug control, Δ band ([1]; sc, 4 mg/kg): +64 ± 27 (+29) percent | group percent change in electrical energy from pre-drug control, α band ([1]; sc, 4 mg/kg): -44 ± 13 (-35) percent | group percent change in electrical energy from pre-drug control, β band ([1]; sc, 4 mg/kg): -6 ± 9 (-5) percent | group percent change in electrical energy from pre-drug control, γ band ([1]; sc, 4 mg/kg): +50 ± 8 (+63) percent | group percent change in electrical energy from pre-drug control, θ band ([1]; sc, 4 mg/kg): -34 ± 13 (-24) percent | mean change ± S.E. in electrical energy from pre-drug control, Δ band ([1]; sc, 4 mg/kg): +64 ± 27 (+29) instrument counts | mean change ± S.E. in electrical energy from pre-drug control, α band ([1]; sc, 4 mg/kg): -44 ± 13 (-35) instrument counts | mean change ± S.E. in electrical energy from pre-drug control, β band ([1]; sc, 4 mg/kg): -6 ± 9 (-5) instrument counts | mean change ± S.E. in electrical energy from pre-drug control, γ band ([1]; sc, 4 mg/kg): +50 ± 8 (+63) instrument counts | mean change ± S.E. in electrical energy from pre-drug control, θ band ([1]; sc, 4 mg/kg): -34 ± 13 (-24) instrument counts
